Reference: PubChem BioAssay AID367 (MTDP, 2006)
Calls of active or inactive are those of the source. No rule for the calls is given here.

Target: Gag-Pol polyprotein (Human immunodeficiency virus type 2 subtype A (isolate ROD)) (UniProt P04584)
Assay: Ribonuclease H inhibitors of HIV-2 reverse transcriptase, biochemical dose response (AID 367)
Conditions: HIV-2 RNase H, FRET RNA/DNA substrate cleavage

Chain of Gag-Pol polyprotein (Human immunodeficiency virus type 2 subtype A (isolate ROD)) (P04584 whole entry, looked up): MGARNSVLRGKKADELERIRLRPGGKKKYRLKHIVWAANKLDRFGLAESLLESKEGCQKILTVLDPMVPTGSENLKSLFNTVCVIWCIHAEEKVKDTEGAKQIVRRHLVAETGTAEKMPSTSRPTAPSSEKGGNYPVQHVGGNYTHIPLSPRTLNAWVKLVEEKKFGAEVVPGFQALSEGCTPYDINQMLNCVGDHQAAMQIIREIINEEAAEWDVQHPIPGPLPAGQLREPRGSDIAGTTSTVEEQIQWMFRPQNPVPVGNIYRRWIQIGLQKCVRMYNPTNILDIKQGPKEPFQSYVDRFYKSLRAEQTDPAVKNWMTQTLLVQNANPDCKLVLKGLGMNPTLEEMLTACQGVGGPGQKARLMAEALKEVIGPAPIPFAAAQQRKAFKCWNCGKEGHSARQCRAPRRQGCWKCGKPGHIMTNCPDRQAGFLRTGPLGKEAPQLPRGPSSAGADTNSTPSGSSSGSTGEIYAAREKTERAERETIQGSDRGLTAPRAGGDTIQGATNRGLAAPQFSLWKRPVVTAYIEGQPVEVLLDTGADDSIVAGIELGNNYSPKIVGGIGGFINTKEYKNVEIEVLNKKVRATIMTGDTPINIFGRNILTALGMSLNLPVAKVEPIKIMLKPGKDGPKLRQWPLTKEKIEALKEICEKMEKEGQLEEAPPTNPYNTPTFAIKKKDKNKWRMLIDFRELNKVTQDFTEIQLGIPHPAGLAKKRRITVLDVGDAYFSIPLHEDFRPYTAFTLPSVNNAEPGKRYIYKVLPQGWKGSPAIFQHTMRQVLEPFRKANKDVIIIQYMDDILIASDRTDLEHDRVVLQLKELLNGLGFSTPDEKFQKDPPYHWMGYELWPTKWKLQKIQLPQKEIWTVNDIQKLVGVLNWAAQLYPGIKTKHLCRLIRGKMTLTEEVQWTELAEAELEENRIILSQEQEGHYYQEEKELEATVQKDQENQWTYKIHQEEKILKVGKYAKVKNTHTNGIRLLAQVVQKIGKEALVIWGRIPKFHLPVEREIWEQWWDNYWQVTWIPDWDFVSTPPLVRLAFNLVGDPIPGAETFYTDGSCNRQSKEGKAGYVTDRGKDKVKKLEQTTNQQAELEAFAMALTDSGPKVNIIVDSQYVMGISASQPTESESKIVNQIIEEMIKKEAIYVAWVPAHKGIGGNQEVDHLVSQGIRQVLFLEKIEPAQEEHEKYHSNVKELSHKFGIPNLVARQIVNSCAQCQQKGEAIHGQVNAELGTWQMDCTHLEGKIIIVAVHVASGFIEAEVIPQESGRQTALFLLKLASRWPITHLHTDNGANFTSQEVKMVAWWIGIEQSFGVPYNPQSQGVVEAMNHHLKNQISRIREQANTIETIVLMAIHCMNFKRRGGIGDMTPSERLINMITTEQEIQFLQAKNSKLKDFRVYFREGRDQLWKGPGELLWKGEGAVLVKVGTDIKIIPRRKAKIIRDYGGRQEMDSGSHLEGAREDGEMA

Structure (SMILES)	IC50
O=C1NC(=S)N(c2ccccc2F)C(=O)/C1=C/c1ccc(OCc2cccc(C(=O)O)c2)cc1	9 µM
O=[N+]([O-])c1cc(Cc2cc([N+](=O)[O-])c3cccnc3c2O)c(O)c2ncccc12	2.8 µM
CC(C)OC(=O)c1cc(O)c(O)c(O)c1	8 µM
Oc1c(Br)cc(/C=N/Nc2nnc3c(n2)[nH]c2ccccc23)c(Br)c1O	2.3 µM
COc1ccc(-c2nc3sc(-c4ccc(OC)cc4)nc3s2)cc1	2.9 µM
C[C@]12Cc3cnc(-c4ccccc4)nc3C[C@@H]1CC[C@@H]1[C@@H]2CC[C@@]2(C)[C@H]1CC[C@]2(C)O	inactive
O=C1C=CC(=O)C(c2cccc(Cl)c2)=C1	1.1 µM
CC1=C(CCC(=O)O)c2cc3nc(cc4[nH]c(cc5[nH]c(cc1n2)c(C)c5C(C)O)c(C)c4C(C)O)C(C)=C3CCC(=O)O (stereo unspecified)	1.7 µM
NCC[Se][Se]CCN	2 µM
O=C(N/N=C/c1ccccc1Cl)c1cc(O)c(O)c(O)c1	0.8 µM
O=c1c(O)c(-c2cc(O)c(O)c(O)c2)oc2cc(O)cc(O)c12	3 µM
Cc1cc(O)c2c(c1O)C(=O)c1cccc(O)c1C2=O	> 100 µM (inactive)
O=C(Oc1ccccc1)Oc1c(Cl)cc2oc(=O)sc2c1Cl	6.3 µM
Cc1cc(C)c2c(=O)[nH]c(SCC(=O)c3ccc(O)c(O)c3)nc2n1	3 µM
Cc1c(O)c(Br)c(C)c(O)c1Br (tested in a mixture with another compound)	0.7 µM
CCCCCCCCCCCCCCCC(=O)OCC1OC(n2ccc(N)nc2=O)C(O)C1O (stereo unspecified)	inactive
CCOC(=O)Oc1c(OC)cc(C(=O)O[C@@H]2C[C@@H]3CN4CCc5c([nH]c6cc(OC)ccc56)[C@H]4C[C@@H]3[C@H](C(=O)OC)[C@H]2OC)cc1OC	> 100 µM (inactive)
O=[N+]([O-])c1ccc(S(=O)(=O)Cc2ccccc2)c2nonc12	5 µM
Nc1cc(S(N)(=O)=O)ccc1SSc1ccc(S(N)(=O)=O)cc1N	2.5 µM
O=C1Nc2ccc(I)cc2C1(O)N1CCOCC1 (stereo unspecified)	6.3 µM
CC(C)c1cccc(O)c(=O)c1	> 100 µM (inactive)
Cc1sc(NC(=O)C2CCCO2)c(C(N)=O)c1C (stereo unspecified)	4.3 µM
O=C1NC(=S)N(c2cccc(Cl)c2)C(=O)/C1=C\C=C\c1ccco1	7 µM
COc1ccc(C(=O)NC(=S)Nc2ccc3nn(-c4ccc(C)c(Cl)c4)nc3c2)cc1[N+](=O)[O-]	4.3 µM
COc1ccc(N2C(=O)/C(=C/c3ccc(I)o3)C(=O)NC2=S)cc1	1.3 µM
O=S(=O)(Nc1cccc(C(F)(F)F)c1)c1ccc2ccccc2c1	inactive

Structure (SMILES)	IC50
O=C1NC(=S)S/C1=C/c1cccc(OCc2ccc(Cl)c(Cl)c2)c1	7.3 µM
COC([CH2][Hg][n]1cnc2c1c(=O)n(C)c(=O)n2C)CN1C(=O)c2ccccc2S1(=O)=O (stereo unspecified)	0.9 µM
Cc1nn(CC(=O)Nc2sc(C)c(C)c2C(N)=O)c(C)c1[N+](=O)[O-]	4.3 µM
O=C1C(Cl)=CC(=NS(=O)(=O)c2ccccc2)C=C1Cl	1 µM
O=c1[nH]c2[nH]c(=S)[nH]c(=S)c2[nH]1	4 µM
O=C(Nc1ccc(N2CCN(C(=O)c3ccccc3)CC2)cc1)c1ccc(-c2ccccc2)cc1	2.6 µM
O=C1c2ccccc2C(=O)c2c(NC3CCCCC3)ccc(Nc3ccc(S(=O)(=O)O)cc3)c21	4.8 µM
Cc1ccc(C(=O)NC(=S)Nc2ccc(-c3nc4ccccc4s3)cc2)cc1[N+](=O)[O-]	inactive
S=C(Nc1ccc2c(c1)Cc1ccccc1-2)Nc1ccc2c(c1)Cc1ccccc1-2	inactive
Ic1ccc2c(c1)N(c1ccccc1)c1cc(N=c3ccc4nc5ccc(I)cc5n(-c5ccccc5)c-4c3)ccc1N2	2 µM
Nc1ccc(S(=O)(=O)O)c2cccc(O)c12	inactive
COC(=O)c1c(N)sc(C(=O)Nc2ccc(OC)cc2)c1C	4.3 µM
CC1=c2c(oc3cc(O)c(Nc4c(C)cc(O)cc4O)c(C)c23)=CC(=O)C1=Nc1c(C)cc(O)cc1O	2 µM
COc1ccc(C2COc3cc(O)c(O)cc3C2)cc1 (stereo unspecified)	0.5 µM
COc1cccc(-c2nc3cc(NC(=O)/C=C\c4ccccc4)ccc3o2)c1	9.2 µM
Cc1sc(NC(=O)c2cccc([N+](=O)[O-])c2)c(C(N)=O)c1C	1.8 µM
CN(C)CN1CSC(=S)N(CN(C)C)C1	2.8 µM
COc1ccc(NC(=O)c2c(N)sc(-c3ccccc3)c2C)cc1	9 µM
C[C@@H]1[C@H](O)c2c(c3c(c4c(-c5ccccc5)cc(=O)oc24)OC(C)(C)C=C3)O[C@@H]1C	inactive
C[C@]12CC[C@H]3[C@@H](CCC4=CC(=O)CC[C@@]43C)[C@@H]1CC[C@@H]2C(=O)COS(=O)(=O)c1ccc(Br)cc1	7.1 µM
Cc1ccc(S(=O)(=O)/N=C2\C=C(Sc3ncn[nH]3)C(=O)c3ccccc32)cc1	2 µM
CN(C)CS/C(N)=N/C(O)C(Cl)(Cl)Cl (stereo unspecified)	6 µM
CN1CC(O)C2=CC(=O)C(=O)C=C21 (stereo unspecified)	4 µM
Cc1cc(I)c2c(c1)C1C=CCC1C(C(=O)O)N2 (stereo unspecified)	> 100 µM (inactive)
CN(C)S(=O)(=O)c1ccc(Nc2ccc(O)c3c2C(=O)c2c([N+](=O)[O-])ccc(O)c2C3=O)cc1	8 µM
Cc1sc(NC(=O)C2CC3CCC2C3)c(C(N)=O)c1C (stereo unspecified)	inactive

Structure (SMILES)	IC50
O=C1C(Cl)=C(NC(=O)c2ccccc2)C(=O)C(Cl)=C1NC(=O)c1ccccc1	1.1 µM
CCCCCCCCCCCCCCCCCCOCC(O)CO (stereo unspecified)	> 100 µM (inactive)
O=C1CC(=O)c2ccc3c4c(ccc1c24)C(=O)CC3=O	3.8 µM
Cc1ccc(NC(=O)c2c(NC(=O)c3ccccc3F)sc3c2CCCCC3)cc1	5 µM
Cc1sc(NC(=O)c2ccco2)c(C(N)=O)c1C	5 µM
O=C(Cc1ccccc1Cl)c1ccc(O)c(O)c1O	2 µM
Cc1ccc(S(=O)(=O)N=C2C=CC(=O)C=C2)c(C)c1	4.3 µM
Cc1sc2nc(-c3ccc([N+](=O)[O-])cc3)[nH]c(=O)c2c1C	0.64 µM
O=C1C(Cl)=C/C(=N\S(=O)(=O)c2ccccc2)C(Cl)=C1Cl	0.9 µM
O=C1/C(=C/c2ccco2)C(=O)N(c2ccc(Br)cc2)C(=S)N1c1ccccc1	inactive
C[C@@H]1Oc2c3c(c4c(-c5ccccc5)cc(=O)oc4c2C(=O)[C@H]1C)OC(C)(C)C=C3	9.8 µM
O=c1c(O)cccc2cc(O)c(O)c(O)c12	1.3 µM
Cc1ccc(S(=O)(=O)/N=C2\C=CC(=O)C=C2Cl)cc1	2.1 µM
O=C1c2ccccc2C(=O)c2c(O)c(O)cc(O)c21	5 µM
CC(C)=Cc1cc(CCC/C(C)=C/Cc2c(O)cc(C)c(C(=O)O)c2O)co1	5.7 µM
Cc1sc(NC(=O)Cc2ccccc2)c(C(N)=O)c1C	9 µM
O=C1/C(=C\c2ccc(O)c(O)c2)SC(=S)N1c1cccc(Cl)c1	6.6 µM
Cc1ccc(S(=O)(=O)N=C2C=C(Cl)C(=O)C(Br)=C2)cc1	1.8 µM
Cc1sc(NC(=O)c2ccc(Br)o2)c(C(N)=O)c1C	7 µM
CC1Oc2cc3c(-c4c(O)cc(O)c5c(O)c6c(cc45)OC(C)C(C)C6=O)c(O)cc(O)c3c(O)c2C(=O)C1C (stereo unspecified)	8.2 µM
O=C1NC(=S)N(c2ccc(Cl)cc2)C(=O)/C1=C/c1ccco1	inactive
Cc1ccc(C)n1-c1ccc(O)c(C(=O)O)c1	1.6 µM
Cc1c(Cl)ccc2c1NC(C(=O)O)C1CC=CC21 (stereo unspecified)	inactive
COc1cc(/C=N\c2sc3c(c2C(=O)NCc2ccccc2)CCCC3)cc(Cl)c1O	2.8 µM
